Measurements from ChEMBL document CHEMBL1287803, “Synthesis of 4β-N-polyaromatic substituted podophyllotoxins: DNA topoisomerase inhibition, anticancer and apoptosis-inducing activities” (Bioorg Med Chem, 2010).
Calls of active or inactive are those of the source. No cut-off for these calls is given here.

Experiments:
[1] = system: A549; assay: Anticancer activity against human A549 cells assessed as cell viability after 48 hrs by SRB assay; type: functional, cell-based; conditions: A549, 48 h
[2] = system: HEp-2; assay: Anticancer activity against human Hep2 cells assessed as cell viability after 48 hrs by SRB assay; type: functional, cell-based; conditions: HEp-2, 48 h
[3] = system: HCT-15; assay: Anticancer activity against human HCT15 cells assessed as cell viability after 48 hrs by SRB assay; type: functional, cell-based; conditions: HCT-15, 48 h
[4] = system: DU-145; assay: Anticancer activity against human DU145 cells assessed as cell viability after 48 hrs by SRB assay; type: functional, cell-based; conditions: DU-145, 48 h
[5] = system: IMR-32; assay: Anticancer activity against human IMR32 cells assessed as cell viability after 48 hrs by SRB assay; type: functional, cell-based; conditions: IMR-32, 48 h
[6] = Anticancer activity against human 502713 cells assessed as cell viability after 48 hrs by SRB assay; type: functional, cell-based; conditions: Homo sapiens, 502713, 48 h
[7] = system: PC-3; assay: Anticancer activity against human PC3 cells assessed as cell viability after 48 hrs by SRB assay; type: functional, cell-based; conditions: PC-3, 48 h
[8] = system: MOLT-4; assay: Cell cycle arrest in human MOLT4 cells assessed as accumulation at sub G1 phase at 5 uM after 24 hrs using propidium iodide staining by flow cytometry; type: functional, cell-based
[9] = system: MOLT-4; assay: Induction of apoptosis in human MOLT4 cells assessed as DNA fragmentation at 5 uM after 24 hrs by agarose gel electrophoresis; type: functional, cell-based
[10] = system: MOLT-4; assay: Cell cycle arrest in human MOLT4 cells assessed as accumulation at sub G1 phase at 1 uM after 24 hrs using propidium iodide staining by flow cytometry; type: functional, cell-based
[11] = system: MOLT-4; assay: Induction of apoptosis in human MOLT4 cells assessed as DNA fragmentation at 10 uM after 24 hrs by agarose gel electrophoresis; type: functional, cell-based
[12] = Inhibition of DNA topoisomerase 2 assessed as inhibition of relaxation of supercoiled pBR322 plasmid DNA at 10 to 500 uM by gel electrophoresis
[13] = system: MOLT-4; assay: Cell cycle arrest in human MOLT4 cells assessed as accumulation at sub G1 phase at 0.5 uM after 24 hrs using propidium iodide staining by flow cytometry; type: functional, cell-based
[14] = system: MOLT-4; assay: Induction of apoptosis in human MOLT4 cells assessed as DNA fragmentation at 0.5 uM after 24 hrs by agarose gel electrophoresis; type: functional, cell-based
[15] = system: MOLT-4; assay: Induction of apoptosis in human MOLT4 cells assessed as DNA fragmentation at 1 uM after 24 hrs by agarose gel electrophoresis; type: functional, cell-based
[16] = Inhibition of DNA topoisomerase 2 assessed as inhibition of relaxation of supercoiled pBR322 plasmid DNA at 1 mM by gel electrophoresis
[17] = system: MOLT-4; assay: Cell cycle arrest in human MOLT4 cells assessed as accumulation at sub G1 phase at 10 uM after 24 hrs using propidium iodide staining by flow cytometry; type: functional, cell-based
[18] = Inhibition of DNA topoisomerase 2 assessed as inhibition of relaxation of supercoiled pBR322 plasmid DNA at 10 uM by gel electrophoresis

Row | Structure (SMILES) | IC50 [1] [µM] | IC50 [2] [µM] | IC50 [3] [µM] | IC50 [4] [µM] | IC50 [5] [µM] | IC50 [6] [µM] | IC50 [7] [µM] | Activity [8] | Activity [9] | Activity [10] | Activity [11] | inhibition [12] | Activity [13] | Activity [14] | Activity [15] | inhibition [16] | Activity [17] | inhibition [18]
1 | COc1cc([C@@H]2c3cc4c(cc3[C@@H](Nc3cccc5cc6ccccc6cc35)[C@H]3COC(=O)[C@H]23)OCO4)cc(OC)c1O | 8.3 | 8.6 | 8.2 | 18 | 2.3 |  |  |  |  |  |  |  |  |  |  |  |  | 
2 | COc1cc([C@@H]2c3cc4c(cc3[C@@H](Nc3cccc5c3Cc3ccccc3-5)[C@H]3COC(=O)[C@H]23)OCO4)cc(OC)c1O | 1 | 1 | 0.0001 | 2.7 | 10 | 0.001 | 0.5 |  |  |  |  |  |  |  |  |  |  | 
3 | COc1cc([C@@H]2c3cc4c(cc3[C@@H](Nc3cc5c6ccccc6ccc5c5ccccc35)[C@H]3COC(=O)[C@H]23)OCO4)cc(OC)c1OC | 0.04 | 0.002 | 0.002 | 2.2 | 0.003 | 0.1 | 0.1 | Active | Active | Active | Active | Active | Active | Active | Active | Active | Active | 
4 | O=c1[nH]cc(F)c(=O)[nH]1 [FLUOROURACIL] | 2.4 | 0.3 | 3.6 | 4.8 | 18 | 4.6 | 12 |  |  |  |  |  |  |  |  |  |  | 
5 | COc1cc([C@@H]2c3cc4c(cc3[C@@H](Nc3ccc(C(=O)c5ccc(F)cc5)cc3)[C@H]3COC(=O)[C@H]23)OCO4)cc(OC)c1OC | 17 | 7.1 | 6.2 |  | 19 | 4.1 | 6.7 |  |  |  |  |  |  |  |  |  |  | 
6 | COc1cc([C@@H]2c3cc4c(cc3[C@@H](Nc3ccc5ccc6cccc7ccc3c5c67)[C@H]3COC(=O)[C@H]23)OCO4)cc(OC)c1OC | 0.0009 |  | 0.0001 |  |  | 0.002 | 0.0001 |  |  |  |  | Active |  |  |  | Active |  | 
7 | COc1cc([C@@H]2c3cc4c(cc3[C@@H](Nc3ccc5ccc6cccc7ccc3c5c67)[C@H]3COC(=O)[C@H]23)OCO4)cc(OC)c1O | 1.7 | 0.0002 | 0.0001 | 2.2 | 0.2 | 0.002 |  |  |  |  |  |  |  |  |  |  |  | 
8 | COc1cc([C@@H]2c3cc4c(cc3[C@@H](O[C@@H]3O[C@@H]5CO[C@@H](C)O[C@H]5[C@H](O)[C@H]3O)[C@H]3COC(=O)[C@H]23)OCO4)cc(OC)c1O [ETOPOSIDE] | 3.08 | 0.9 | 0.9 | 3.7 | 6.3 | 0.1 | 2.6 |  |  |  |  |  |  |  |  |  |  | Active
9 | COc1cc([C@@H]2c3cc4c(cc3[C@@H](Nc3ccc(C(=O)c5ccc(N(CCCl)CCCl)cc5)cc3)[C@H]3COC(=O)[C@H]23)OCO4)cc(OC)c1OC | 3.08 | 0.9 | 0.9 | 3.7 | 6.3 | 0.1 | 2.6 |  |  |  |  |  |  |  |  |  |  | 
10 | COc1cc([C@@H]2c3cc4c(cc3[C@@H](Nc3cccc5cc6ccccc6cc35)[C@H]3COC(=O)[C@H]23)OCO4)cc(OC)c1OC | 8.8 | 6.7 | 6.3 | 21 | 6.7 | 9.4 | 7.9 |  |  |  |  |  |  |  |  |  |  | 
11 | COc1cc([C@@H]2c3cc4c(cc3[C@@H](Nc3cccc5c3Cc3ccccc3-5)[C@H]3COC(=O)[C@H]23)OCO4)cc(OC)c1OC | 7.1 | 3 | 0.09 | 6.6 | 5.5 | 5.5 | 4.3 |  |  |  |  |  |  |  |  |  |  | 
12 | COc1cc([C@@H]2c3cc4c(cc3[C@@H](Nc3ccc(C(=O)c5ccc(F)cc5)cc3)[C@H]3COC(=O)[C@H]23)OCO4)cc(OC)c1O | 0.2 | 1.3 | 0.08 | 0.3 | 1.3 | 1.4 | 6 |  |  |  |  |  |  |  |  |  |  | 
13 | CC[C@@]1(O)C(=O)OCc2c1cc1n(c2=O)Cc2cc3ccccc3nc2-1 [CAMPTOTHECIN] | 0.03 | 0.7 | 0.067 | 0.02 | 0.08 |  | 0.03 | Active |  |  |  |  |  |  |  |  |  | 
14 | COc1cc([C@@H]2c3cc4c(cc3[C@@H](Nc3cc5c6ccccc6ccc5c5ccccc35)[C@H]3COC(=O)[C@H]23)OCO4)cc(OC)c1O | 0.0003 | 0.01 | 0.1 | 0.0003 | 0.001 | 0.1 | 0.0003 |  |  |  |  | Active |  |  |  | Active |  | 
